According to publication PMC4604124, “In Vitro Characterization of the Pharmacological Properties of the Anti-Cancer Chelator, Bp4eT, and Its Phase I Metabolites” (PLoS ONE, 2015):
Where “and” joins values, the source holds several entries; their conditions need not be identical. Equal entries are not always repeated.

What was measured:
[1] = system: caspase 8; test: Caspase activity, luminescent kit, caspase 8; type: cell-based, human; details: for Caspase 8 activity, % of the control: 100 nM, MCF-7, corrected for viability; for kaspáza 8, průměry (means of raw signal): mean of 4 experiments; for kaspáza 8, raw signal / kaspáza 8, signal / viabilita: individual experiments by date
Experimental: (§1) To assess the effect of the compounds on caspase activity, MCF-7 cells were incubated with 100 nM Bp4eT or its metabolites for 3, 24 or 72 h/37°C in 96-well plates, as described above. The cells were then lysed by adding 100 μL of cold lysis buffer (100 mM HEPES, 10 mM CHAPS, 10 mM D-L-dithiothreitol, pH 7.4) to 100 μL of medium in each well. Lysates were immediately frozen at -80°C. Thawed lysates were used to assess caspase activity using luminescent kits for caspases 3/7, 8 and 9 (Promega, Madison, WI, USA). The luminescence was measured using the Tecan Infinite 200M plate reader. Caspase activity in the experimental groups was corrected according to the cellular viability of each group and expressed as a percentage of activity of the untreated control (100%).

[2] = system: caspase 9; test: Caspase activity, luminescent kit, caspase 9; type: cell-based, human; details: for Caspase 9 activity, % of the control: 100 nM, MCF-7, corrected for viability; for kaspáza 9, průměry (means of raw signal): mean of 4 experiments; for kaspáza 9, raw signal / kaspáza 9, signal / viabilita: individual experiments by date
Experimental: as §1

[3] = 3 hodiny, mean, normalised to viability
[4] = 3 hodiny, normalised to viability
[5] = 3 hodiny, normalised to viability, mean
[6] = 24 hodin, mean, normalised to viability
[7] = 24 hodin, normalised to viability
[8] = 24 hodin, normalised to viability, mean
[9] = 72 hodin, mean, normalised to viability
[10] = 72 hodin, normalised to viability
[11] = 72 hodin, normalised to viability, mean

Structure (SMILES): CCNC(=S)NN=C(c1ccccc1)c1ccccn1 [Bp4eT, 2-benzoylpyridine 4-ethyl-3-thiosemicarbazone]
- Caspase 8 activity, % of the control ([1]; 24 h): 125%
- Caspase 8 activity, % of the control ([1]; 72 h): 189%
- kaspáza 8, % kontroly ([1]; 3 hodiny (3 h), % of control): 95.86%
- kaspáza 8, průměry (means of raw signal) ([1]; 3 hodiny (3 h)): 1343.75
- kaspáza 8, raw signal ([1]; 3 hodiny): 2059 and 1157 and 1253.5 and 905.5
- kaspáza 8, raw signal, průměry ([1]; 3 hodiny, mean): 1343.75
- kaspáza 8, % kontroly [1, 3]: 100.78 % kontroly
- kaspáza 8, signal / viabilita [1, 4]: 21.3728 and 12.0099 and 13.0116 and 9.399
- kaspáza 8, signal / viabilita, průměry [1, 5]: 13.9484
- kaspáza 8, % kontroly ([1]; 24 hodin (24 h), % of control): 66.28%
- kaspáza 8, průměry (means of raw signal) ([1]; 24 hodin (24 h)): 1049.5
- kaspáza 8, raw signal ([1]; 24 hodin): 1182.5 and 845.5 and 1242.5 and 927.5
- kaspáza 8, raw signal, průměry ([1]; 24 hodin, mean): 1049.5
- kaspáza 8, % kontroly [1, 6]: 125.02 % kontroly
- kaspáza 8, signal / viabilita [1, 7]: 22.3747 and 15.9981 and 23.51 and 17.5497
- kaspáza 8, signal / viabilita, průměry [1, 8]: 19.8581
- kaspáza 8, % kontroly ([1]; 72 hodin (72 h), % of control): 50.72%
- kaspáza 8, průměry (means of raw signal) ([1]; 72 hodin (72 h)): 3576.88
- kaspáza 8, raw signal ([1]; 72 hodin): 5283 and 3499.5 and 2666 and 2859
- kaspáza 8, raw signal, průměry ([1]; 72 hodin, mean): 3576.88
- kaspáza 8, % kontroly [1, 9]: 188.91 % kontroly
- kaspáza 8, signal / viabilita [1, 10]: 195.017 and 129.181 and 98.4127 and 105.537
- kaspáza 8, signal / viabilita, průměry [1, 11]: 132.037
- Caspase 9 activity, % of the control ([2]; 24 h): 125%
- Caspase 9 activity, % of the control ([2]; 72 h): 249%
- kaspáza 9, % kontroly ([2]; 3 hodiny (3 h), % of control): 104.85%
- kaspáza 9, průměry (means of raw signal) ([2]; 3 hodiny (3 h)): 3805.38
- kaspáza 9, raw signal ([2]; 3 hodiny): 6578.5 and 2900.5 and 3521 and 2221.5
- kaspáza 9, raw signal, průměry ([2]; 3 hodiny, mean): 3805.38
- kaspáza 9, % kontroly [2, 3]: 111.23 % kontroly
- kaspáza 9, signal / viabilita [2, 4]: 68.2861 and 30.1078 and 36.5487 and 23.0596
- kaspáza 9, signal / viabilita, průměry [2, 5]: 39.5005
- kaspáza 9, % kontroly ([2]; 24 hodin (24 h), % of control): 66.84%
- kaspáza 9, průměry (means of raw signal) ([2]; 24 hodin (24 h)): 2704
- kaspáza 9, raw signal ([2]; 24 hodin): 3466.5 and 1743.5 and 3244.5 and 2361.5
- kaspáza 9, raw signal, průměry ([2]; 24 hodin, mean): 2704
- kaspáza 9, % kontroly [2, 6]: 124.96 % kontroly
- kaspáza 9, signal / viabilita [2, 7]: 65.5914 and 32.9897 and 61.3908 and 44.6831
- kaspáza 9, signal / viabilita, průměry [2, 8]: 51.1638
- kaspáza 9, % kontroly ([2]; 72 hodin (72 h), % of control): 66.22%
- kaspáza 9, průměry (means of raw signal) ([2]; 72 hodin (72 h)): 14621.1
- kaspáza 9, raw signal ([2]; 72 hodin): 22930.5 and 14080 and 11064.5 and 10409.5
- kaspáza 9, raw signal, průměry ([2]; 72 hodin, mean): 14621.1
- kaspáza 9, % kontroly [2, 9]: 249.26 % kontroly
- kaspáza 9, signal / viabilita [2, 10]: 846.456 and 519.749 and 408.435 and 384.256
- kaspáza 9, signal / viabilita, průměry [2, 11]: 539.724
